According to PMC6278664, “Highly Cancer Selective Antiproliferative Activity of Natural Prenylated Flavonoids” (Molecules, 2018):
Like-named read-outs stand apart in the source and are kept apart here.

Experiments:
[1] = test system: HLMEC human lung microvascular endothelial cell line; experiment: SRB antiproliferative assay, HLMEC (normal); type: cell-based; settings: 72 h, mean ± SD
[2] = test system: MCF 10A human mammary epithelial cells line; experiment: SRB antiproliferative assay, MCF 10A (normal); type: cell-based; settings: 72 h, mean ± SD, read-out: Normal cell line, IC50, MCF-10A
Experimental: (§1) We determined the effect of various structural factors in the substrates on the antiproliferative activity against those selected to the study cell lines: the location and/or the presence of the prenyl group, the chalcone/flavanone skeleton and the presence of an O-methyl group at C-5 in flavanones. Flavonoids presented in Figure 1 were tested for the antiproliferative activity towards eight cancer cell lines including estrogen-dependent (MCF7 and T-47D) and two normal ones (HLMEC and MCF 10A). The in vitro antiproliferative activity was measured using SRB assay. The results are presented in Figure 2 (and in the supplement in Table S1). The antiproliferative activity was measured separately for each of the experiments and given as the average IC50 (the concentration of tested compound which inhibits 50% of the cells population). Cisplatin (CP), a common anticancer drug, was used as a positive control.
(§2) The following established in vitro cell lines were applied: MCF7, T-47D, MDA-MB-231 (human breast cancer cell line), A2780 (human ovarian cancer cell line), A2780cis (human cisplatin-resistant ovarian cancer cell line), PC-3 and DU 145 (human prostate cancer cell lines), HT-29 (human colon cancer cell line), HLMEC (human lung microvascular endothelial cell line), and MCF 10A (human mammary epithelial cells line).
(§3) The cell lines: MDA-MB-231, HT-29, PC-3, DU 145, and MCF 10A were obtained from the American Type Culture Collection (Rockville, MD, USA), MCF7, T-47D, A2780, A2780cis from the European Collection Cell Cultures (Sigma-Aldrich, Chemie GmbH, Steinheim, Germany), while the HLMEC cell line was obtained by M. Paprocka from the institute. All cell lines are being maintained in the Institute of Immunology and Experimental Therapy (Wrocław, Poland). DU 145 and MCF7 cells were cultured in Eagle medium (supplemented with 4mM L-glutamine, 10% fetal bovine serum, 1 mM sodium pyruvate for DU 145 cells or 2 mM L-glutamine, 1% mem non-essential amino acid solution and 8 µg/mL insulin and 10% fetal bovine serum for MCF7). […] HT-29 and T-47D cell lines were cultured in RPMI 1640 + OPTI-MEM medium supplemented with 2 mM L-glutamine, 5% fetal bovine serum and 8 µg/mL of insulin (T-47D) or 1 mM sodium pyruvate (HT-29). MDA-MB-231, PC-3 and HLMEC cell lines were cultured in RPMI 1640 medium supplemented with 2 mM L-glutamine and 10% fetal bovine serum. Medium for MCF 10A cell line consisted of F-12 nutrient mixture supplemented with cholera toxin (0.05 µg/mL), insulin (10 µg/mL), hydrocortisone (0.5 µg/mL), 5% horse serum, and EGFH (20 ng/mL). All the culture media contained antibiotics: 100 units/mL penicillin (Polfa Tarchomin SA, Warsaw, Poland), and 100 µg/mL streptomycin (Sigma-Aldrich, Chemie GmbH, Steinheim, Germany). All cell lines were grown at 37 °C with 5% CO2 humidified atmosphere.
(§4) Twenty-four hours before the incubation with the tested compounds, the cells were seeded in 96-plates (Sarstedt, Germany) at a density of 1 × 10^4 cells per well (0.75 × 10^4 per well for MCF7 and 1 × 10^3 per well for HLMEC) in 100 µL of a culture medium.
(§5) Each agent at each concentration (from 0.1 to 100 µg/mL) was tested in a single experiment, which was repeated four to five times. […] Cisplatin was used as a reference drug.
(§6) The results were calculated as the IC50 (inhibitory concentration 50%)—the concentration of the tested compound which inhibits 50% of the cells population. IC50 values were calculated for each experiment separately and mean values ± SD are presented in the Table S1 in the Supplementary Materials. Each compound at each concentration was tested in triplicate in a single experiment, which was repeated four to five times.
(§7) The cells were fixed in situ by gently adding cold 50% trichloroacetic acid (50 µL per well). The plates were incubated at 4 °C for 1h and then washed five times with tap water. […]

[3] = test system: MCF7 human breast cancer cell line; experiment: SRB antiproliferative assay, MCF7; type: cell-based; settings: for IC50: SRB, 72 h, mean ± SD; for Selectivity index SIA, MCF-7: IC50 HLMEC / IC50 MCF-7; for Selectivity index SIB, MCF-7: IC50 MCF-10A / IC50 MCF-7
Experimental: as §1, §2, §3, §4, §5, §6, §7

[4] = test system: HT-29 human colon cancer cell line; experiment: SRB antiproliferative assay, HT-29; type: cell-based; settings: for IC50: SRB, 72 h, mean ± SD; for Selectivity index SIA, HT-29: IC50 HLMEC / IC50 HT-29; for Selectivity index SIB, HT-29: IC50 MCF-10A / IC50 HT-29
[5] = test system: A2780cis human cisplatin-resistant ovarian cancer cell line; experiment: SRB antiproliferative assay, A2780cis; type: cell-based; settings: for IC50: SRB, 72 h, mean ± SD, read-out: Cancer cell line, IC50, A-2780cis; for Selectivity index SIA, A-2780cis: IC50 HLMEC / IC50 A-2780cis; for Selectivity index SIB, A-2780cis: IC50 MCF-10A / IC50 A-2780cis
Experimental: as §1, §2, §3, §4, §5, §6, §7

[6] = test system: T-47D human breast cancer cell line; experiment: SRB antiproliferative assay, T-47D; type: cell-based; settings: for IC50: SRB, 72 h, mean ± SD; for Selectivity index SIA, T-47D: IC50 HLMEC / IC50 T-47D; for Selectivity index SIB, T-47D: IC50 MCF-10A / IC50 T-47D
Experimental: as §1, §2, §3, §4, §5, §6, §7

[7] = test system: MDA-MB-231 human breast cancer cell line; experiment: SRB antiproliferative assay, MDA-MB-231; type: cell-based; settings: for IC50: SRB, 72 h, mean ± SD; for Selectivity index SIA, MDA-MB-231: IC50 HLMEC / IC50 MDA-MB-231; for Selectivity index SIB, MDA-MB-231: IC50 MCF-10A / IC50 MDA-MB-231
Experimental: as §1, §2, §3, §4, §5, §6, §7

[8] = test system: PC-3 human prostate cancer cell line; experiment: SRB antiproliferative assay, PC-3; type: cell-based; settings: for IC50: SRB, 72 h, mean ± SD; for Selectivity index SIA, PC-3: IC50 HLMEC / IC50 PC-3; for Selectivity index SIB, PC-3: IC50 MCF-10A / IC50 PC-3
Experimental: as §1, §2, §3, §4, §5, §6, §7

[9] = test system: DU 145 human prostate cancer cell line; experiment: SRB antiproliferative assay, DU 145; type: cell-based; settings: for IC50: SRB, 72 h, mean ± SD; for Selectivity index SIA, Du-145: IC50 HLMEC / IC50 Du-145; for Selectivity index SIB, Du-145: IC50 MCF-10A / IC50 Du-145
Experimental: as §1, §2, §3, §4, §5, §6, §7

[10] = cited from earlier work
[11] = test system: A2780 human ovarian cancer cell line; experiment: SRB antiproliferative assay, A2780; type: cell-based; settings: for IC50: SRB, 72 h, mean ± SD, read-out: Cancer cell line, IC50, A-2780; for Selectivity index SIA, A-2780: IC50 HLMEC / IC50 A-2780; for Selectivity index SIB, A-2780: IC50 MCF-10A / IC50 A-2780
Experimental: as §1, §2, §3, §4, §5, §6, §7

CC(C)=CCc1c(O)cc(O)c2c1OC(c1ccc(O)cc1)CC2=O (stereo not drawn) [8PN, 8-(3,3-dimethylallyl)-5,7,4′-trihydroxyflavanone]
IC50 ([1]; Homo sapiens, Endothelial cell): 23.9 ± 10.9 µM | IC50 ([2]; Homo sapiens, MCF-10A): 90.7 ± 19.8 µM | IC50 ([3]; Homo sapiens, MCF7, 72 h): 49.5 ± 7.36 µM | Selectivity index SIA, MCF-7 [3]: 0.48 | Selectivity index SIB, MCF-7 [3]: 1.83 | IC50 ([4]; Homo sapiens, HT-29): 89.8 ± 3.42 µM | Selectivity index SIA, HT-29 [4]: 0.27 | Selectivity index SIB, HT-29 [4]: 1.00 | IC50 ([5]; Homo sapiens, A2780cis): 66.4 ± 10.1 µM | Selectivity index SIA, A-2780cis [5]: 0.36 | Selectivity index SIB, A-2780cis [5]: 1.37 | IC50 ([6]; Homo sapiens, T47D): 26.7 ± 9.7 µM | Selectivity index SIA, T-47D [6]: 0.90 | Selectivity index SIB, T-47D [6]: 3.40 | IC50 ([7]; Homo sapiens, MDA-MB-231): 63.8 ± 7.27 µM | Selectivity index SIA, MDA-MB-231 [7]: 0.37 | Selectivity index SIB, MDA-MB-231 [7]: 1.42 | IC50 ([8]; Homo sapiens): 51.4 ± 11.3 µM | Selectivity index SIA, PC-3 [8]: 0.47 | Selectivity index SIB, PC-3 [8]: 1.77 | IC50 ([9]; Homo sapiens, DU-145): 60.6 ± 6.66 µM | Selectivity index SIA, Du-145 [9]: 0.39 | Selectivity index SIB, Du-145 [9]: 1.50 | Glucuronidation ([10]; breast tissue study of Bolca and co-workers): > 90% | IC50 ([11]; Homo sapiens, A2780): 25.9 ± 8.32 µM | Selectivity index SIA, A-2780 [11]: 0.92 | Selectivity index SIB, A-2780 [11]: 3.50

8-(3,3-dimethylallyl)-4,7-dihydroxy-5-methoxyflavanone [IXN]
IC50 [1]: 12.5 ± 5.65 µM | IC50 [2]: 72.1 ± 21.7 µM | Selectivity index SIA, MCF-7 [3]: 0.75 | Selectivity index SIB, MCF-7 [3]: 4.31 | IC50 [3]: 16.7 ± 0.88 µM | Selectivity index SIA, HT-29 [4]: 0.41 | Selectivity index SIB, HT-29 [4]: 2.36 | IC50 [4]: 30.6 ± 1 µM | Selectivity index SIA, A-2780cis [5]: 1.07 | Selectivity index SIB, A-2780cis [5]: 6.19 | IC50 [5]: 11.7 ± 1.44 µM | Selectivity index SIA, T-47D [6]: 0.47 | Selectivity index SIB, T-47D [6]: 2.70 | IC50 [6]: 26.8 ± 6.44 µM | Selectivity index SIA, MDA-MB-231 [7]: 0.29 | Selectivity index SIB, MDA-MB-231 [7]: 1.66 | IC50 [7]: 43.3 ± 10.3 µM | Selectivity index SIA, PC-3 [8]: 0.23 | Selectivity index SIB, PC-3 [8]: 1.35 | IC50 [8]: 53.2 ± 10.6 µM | Selectivity index SIA, Du-145 [9]: 0.21 | Selectivity index SIB, Du-145 [9]: 1.22 | IC50 [9]: 59.2 ± 5.73 µM | Glucuronidation ([10]; in vivo): > 90% | Selectivity index SIA, A-2780 [11]: 1.58 | Selectivity index SIB, A-2780 [11]: 9.09 | IC50 [11]: 7.93 ± 1.65 µM
